From patent publication US20180140612A1, “TOPICAL OPHTHALMIC FORMULATIONS FOR THE TREATMENT AND PREVENTION OF MIGRAINE HEADACHE” (Ora, Inc., priority 2013, published 2018)
Where a name gives a salt, the structure may show the parent alone.

How the values were obtained:
[1] = migraineurs versus control subjects; cited from earlier work
[2] = instillation of ophthalmic drops in the eye of subjects with migraine; assay type: in vivo, human; settings: two subjects with occasional migraine
Procedure: Data from two subjects with occasional migraine has shown that one drop of ketotifen 0.025% in the eye was successful in providing relief within 2 hours post treatment
Data from two subjects with occasional migraine has shown that one drop of ketotifen 0.05% in the eye was successful in providing relief within 2 hours post treatment

[3] = cited from earlier work
[4] = topical 0.5% ophthalmic solution, twice daily dosing for 8 days, cited from earlier work
[5] = first month of treatment; prescription-event data; cited from earlier work

SMILES: NCCc1c[nH]cn1 [histamine]
- induction of migraine headache [1]: induced migraine headache more often in migraineurs than in control subjects

SMILES: CN1CCC(=C2c3ccccc3CC(=O)c3sccc32)CC1 [ketotifen]
- time to relief post treatment ([2]; one drop of ketotifen 0.025% in the eye): ≤ 2 h
- time to relief post treatment ([2]; one drop of ketotifen 0.05% in the eye): ≤ 2 h

SMILES: CC(C)(C)NC[C@H](O)COc1nsnc1N1CCOCC1 [timolol maleate]
- further attacks of migraine ([3]; case report, person with history of common migraine, topical timolol maleate 0.5% for bilateral ocular hypertension): did not experience any further attacks of migraine
- time of peak plasma concentration following first dose [4]: ≤ 4 h
- peak plasma concentration ([4]; following first dose): 0.5 ng/mL

SMILES: CC(C)NCC(O)COc1ccc(CCOCC2CC2)cc1 (centres unmarked) [betaxolol]
- migraine related complaints ([3]; case control study, group of subjects receiving the topical beta-blocker): showed improvement in their migraine related complaints

SMILES: O=C(O)COCCN1CCN([C@H](c2ccccc2)c2ccc(Cl)cc2)CC1 [levocetirizine]
- association of headache/migraines with treatment [5]: positively associated
